{"source": "patent US5013759A", "about": "“Compounds and compositions having anti-inflammatory and analgesic activity” (The Procter & Gamble Company, priority 1990, dated 1991)", "key": {"[1]": {"test_system": "Croton Oil Inflamed Mouse Ear", "experiment": "Croton Oil Inflamed Mouse Ear Test (Topical treatment)", "assay_type": "in vivo, Adult male Cox ICR mice", "conditions": "1% solution in ethanol, two doses, 4 h after croton oil, All values significant p 0.05", "method": "Substituted phenylacetic acid amide compounds were tested for anti-inflammatory activity using the Croton Oil Inflamed Mouse Ear Test (Topical treatment).\nAdult male Cox ICR mice, 25-35 g, were treated at about 3:00 PM on the left ear with 25 l of a 1% solution of the test compound in ethanol. They were placed in individual stainless steel cages where food and water was available ad libitum. The following morning around 8:00 AM the mice were dosed a second time on the same ear. One hour after the second dose, 25 l of 2% croton oil in acetone was applied to the left ear of the control and test groups.\nFour hours after the croton oil treatment, the mice were sacrificed by cervical dislocation and both ears removed. A 5 mm punch biopsy was taken from each ear and weighed to the nearest 0.1 mg on a Cahn electrobalance.\nThe results were expressed as percent inhibition of the swelling response compared to the control group according to the formula:\n(C-Ta..n)/C×100=Percent Inhibition\nwhere C is the average difference between the left and right ear weights of the control group, and\nTa..n is the difference between left and right ear weights of animal (a..n) in a treated group.\nStatistical tests for significance between groups were made using a one way analysis of variance of the ear weight differences."}, "[2]": {"experiment": "Oral administration of soft gelatin capsules to a human (Example IV)", "assay_type": "in vivo", "conditions": "two capsules each containing 225 mg of the composition, 60 kg human", "method": "(§1) A composition for oral administration is prepared by combining the following ingredients:\nN-oleyl-4-hydroxy-3-methoxyphenylacetamide, 1.10 kg"}, "[3]": {"experiment": "Oral administration of syrup to an adult human (Example V)", "assay_type": "in vivo", "conditions": "one teaspoon of syrup, 70 kg adult human", "method": "as §1\nN-oleyl-4-hydroxy-3-methoxyphenylacetamide, 250 g\nPropylene glycol, 1800 ml\nArtificial Cherry flavor, 10 ml\nThe above ingredients are combined to produce a syrup and are packaged under sterile conditions in 6 oz. bottles."}, "[4]": {"test_system": "Carrageenan Rat Paw Edema", "experiment": "Carrageenan Rat Paw Edema Test (Oil Vehicle)", "assay_type": "in vivo, Male Sprague Dawley rats", "conditions": "4 h after carrageenan, All values significant p 0.05", "method": "Substituted phenylacetic acid amide compounds were tested for anti-inflammatory activity using the Carrageenan Rat Paw Edema Test (Oil Vehicle).\nMale Sprague Dawley rats (Charles River Laboratories) were weighed and food fasted overnight. The animals were divided into four to six groups of six animals each according to body weights, average about 145 g, so that each group had about the same average weight (within 10 g).\nThe following morning five ml of water was dosed orally via stomach tube to each animal to facilitate paw swelling. The animals were dosed with the test compound and then placed in individual cages. The drug was dissolved in ethyl oleate: benzyl alcohol, 98:2, and delivered via stomach tube in 1 ml volume.\nPaw volumes (0 time) were determined on both hind paws with a mercury displacement device equipped with a transducer and digitizer. […] Four hours after the carrageenan injection, the paw volumes are again determined.\nThe results are expressed as percent inhibition of the mean paw volume of the test group relative to the control group according to the formula: […]\nTa..n is the difference in paw swelling in the treated animals (a..n). Statistical differences are determined by one way analysis of variance."}, "[5]": {"experiment": "Topical application to forearm of a human (Example VI)", "assay_type": "in vivo", "conditions": "0.4 ml to 80 cm^2 of forearm, 60 kg human", "method": "A composition for topical administration is prepared by combining the following ingredients:\nN-oleyl-4-hydroxy-3-methoxyphenylacetamide, 4 g\nThe phenylacetamide is melted with slight warming and combined with the other ingredients."}}}
{"compound": "C=CCCCCCCCCNC(=O)Cc1ccc(O)c(OC)c1", "note": "[N-9-decenyl-4-hydroxy-3-methoxyphenylacetamide]", "values": [{"measurement": "Percent Inhibition (of the swelling response compared to control)", "setting": "[1]", "value": "98.9 +/- 11.9%"}]}
{"compound": "CCCCCCCC(C)NC(=O)Cc1ccc(O)c(OC)c1", "note": "(stereo not drawn) [N-(2-nonanyl)-4-hydroxy-3-methoxyphenylacetamide]", "values": [{"measurement": "Percent Inhibition (of the swelling response compared to control)", "setting": "[1]", "value": "55.6 +/- 26.5%"}]}
{"compound": "CCCCCCC(C)NC(=O)Cc1ccc(O)c(OC)c1", "note": "(stereo not drawn) [N-(2-octanyl-)-4-hydroxy-3-methoxyphenylacetamide]", "values": [{"measurement": "Percent Inhibition (of the swelling response compared to control)", "setting": "[1]", "value": "48.1 +/- 15.8%"}]}
{"compound": "C=C(CCCCCCCCC)CCCCCCCCNC(=O)Cc1ccc(O)c(OC)c1", "note": "[N-(9-methylene-1-octadecanyl-)-4-hydroxy-3-methoxyphenyl acetamide]", "values": [{"measurement": "Analgesia", "setting": "[2]", "value": "increased analgesic effect"}, {"measurement": "Reduction of inflammation", "setting": "[2]", "value": "substantially similar reduction of inflammation"}]}
{"compound": "COc1cc(CC(=O)NC2CCCCCCC2)ccc1O", "note": "[N-cyclooctyl-4-hydroxy-3-methoxyphenylacetamide]", "values": [{"measurement": "Analgesia", "setting": "[3]", "value": "weaker analgesic effect"}, {"measurement": "Reduction of inflammation", "setting": "[3]", "value": "substantially similar reduction of inflammation"}]}
{"compound": "CCCCCCCCCCNC(=O)Cc1ccc(O)c(OC)c1", "note": "[N-decyl-4-hydroxy-3-methoxyphenylacetamide]", "values": [{"measurement": "Percent Inhibition (of the swelling response compared to control)", "setting": "[1]", "value": "58.1 +/- 29.4%"}]}
{"compound": "CCCCCCCCCCCCNC(=O)Cc1ccc(O)c(OC)c1", "note": "[N-dodecyl-4-hydroxy-3-methoxyphenylacetamide]", "values": [{"measurement": "Percent Inhibition (of the swelling response compared to control)", "setting": "[1]", "value": "55.3 +/- 20.7%"}]}
{"compound": "CCCCCCCNC(=O)Cc1ccc(O)c(OC)c1", "note": "[N-heptyl-4-hydroxy-3-methoxyphenylacetamide]", "values": [{"measurement": "Percent Inhibition (of the swelling response compared to control)", "setting": "[1]", "value": "69.4 +/- 33.9%"}]}
{"compound": "CCCCCCCCCNC(=O)Cc1ccc(O)c(OC)c1", "note": "[N-nonyl-4-hydroxy-3-methoxyphenylacetamide]", "values": [{"measurement": "Percent Inhibition (of the swelling response compared to control)", "setting": "[1]", "value": "80.7 +/- 23.0%"}]}
{"compound": "CCCCCCCCNC(=O)C(C)c1ccc(O)c(OC)c1", "note": "(stereo not drawn) [N-octyl-4-hydroxy-3-methoxyphenyl-2-methyl-acetamide]", "values": [{"measurement": "Percent Inhibition (of the swelling response compared to control)", "setting": "[1]", "value": "88.9 +/- 24.1%"}]}
{"compound": "CCCCCCCCNC(=O)Cc1ccc(O)c(OC)c1", "note": "[N-octyl-4-hydroxy-3-methoxyphenylacetamide]", "values": [{"measurement": "Percent Inhibition (of the swelling response compared to control)", "setting": "[1]", "value": "89.1 +/- 15.7%"}]}
{"compound": "CCCCCCCC/C=C\\CCCCCCCCNC(=O)Cc1ccc(O)c(OC)c1", "note": "[N-oleyl-4-hydroxy-3-methoxyphenylacetamide]", "values": [{"measurement": "Percent Inhibition (of the swelling response compared to control)", "setting": "[1]", "value": "83.5 +/- 11.9%"}, {"measurement": "Percent Inhibition (of mean paw volume relative to control)", "setting": "[4]; 200 mg/kg oral in ethyl oleate: benzyl alcohol 98:2", "value": "89.3 +/- 10.8%"}, {"measurement": "Percent Inhibition (of mean paw volume relative to control)", "setting": "[4]; 400 mg/kg oral in ethyl oleate: benzyl alcohol 98:2", "value": "95.6 +/- 11.2%"}]}
{"compound": "CCCCCCCCCCCCCCCCCCNC(=O)Cc1ccc(O)c(OC)c1", "note": "[N-stearyl-4-hydroxy-3-methoxyphenylacetamide]", "values": [{"measurement": "Analgesia", "setting": "[5]", "value": "weaker analgesic effect"}, {"measurement": "Reduction of inflammation", "setting": "[5]", "value": "substantially similar reduction of inflammation"}]}
